Reference: patent US9249111B2, “Substituted quinoxalines as B-RAF kinase inhibitors” (NEUPHARMA, INC., priority 2011, dated 2016)

What was measured:
BRAF = biological target: T1, BRAF (Homo sapiens, UniProt P15056); assay: Z'-LYTE kinase inhibition assay (Invitrogen), BRAF; format: biochemical; conditions: compound at 1 μM; Z'-LYTE method
T1 construct: purchased Invitrogen
Procedure: (§1) Inhibitory activities of compounds against BRAF or BRAF V600E were measured by Invitrogen using Z′-LYTE® Method as briefly described in the following.
(§2) 4× Test compounds were dissolved in 1% DMSO. […] ATP solutions were diluted to a 4×ATP working concentration in Kinase Buffer (50 mM HEPES pH 7.5, 0.01% BRIJ-35, 10 mM MgCl2, 1 mM EGTA). Reaction started by 30-second shaking of mixture consisting of 2.5 μL4× test compound, 2.5 μL 2× kinase reaction mixture and 2.5 μL 4×ATP Solution on Bar-coded Corning, low volume NBS, black 384-well plate (Corning Cat. #3676). Then the mixture was incubated for 60-minute at room temperature for the kinase reaction, followed by addition of 5 μL of a 1:1024 dilution of development reagent A and 30-second plate shake. The mixture was then incubated for another 60-minute at room temperature for development reaction. Finally fluorescence was read by plate reader. IC50 was calculated by plotting the concentration of compound vs the percentage of inhibition in treated wells using GraphPad Prism 5.

BRAF V600E = biological target: T2, BRAF V600E (Homo sapiens, UniProt P15056, V600E); assay: Z'-LYTE kinase inhibition assay (Invitrogen), BRAF V600E; format: biochemical; conditions: Z'-LYTE method; for inhibition at 1 µM: compound at 1 μM
T2 construct: purchased Invitrogen
Procedure: as §1, §2

A375 cells = assay: MTT cell growth inhibition assay, A375 cells; format: cell-based; conditions: Homo sapiens, A-375, 72 h compound exposure
Procedure: (§3) Inhibition of cell growth by compounds was measured using MTT assay (Mosmann, T., Journal of Immunological Methods, 1983, 65, 55-63). Tumor cell lines were purchased from ATCC (American Type Culture Collection, Manassas, Va.). All cell lines were maintained in RPMI 1640 (Hyclone) supplemented with 10% fetal bovine serum (FBS, Hyclone), glutamine (2 mM, Hyclone), and antibiotics (penicillin 100 U/mL and streptomycin 50 μg/mL) at 37° C. in a humidified atmosphere of 5% CO2 in air. Taxol (as a positive control, Sigma) and compounds were dissolved in DMSO (Sigma), and the final concentration of DMSO in the medium was 1%. Tumor cells were plated in 96-well plates at densities of about 4000 cells/well of a 96-well plate and allowed to adhere/grow for 24 h. They were then treated with various concentrations of drug for 72 h. 3-(4,5-Dimethylthiazol-2-yl)-2,5-diphenyltetrazolium bromide (MTT, Sigma) was used to determine the number of viable cells at the time of compound addition and the number of cells remaining after 72 h compound exposure. The number of cells remaining after 72 h was compared to the number of viable cells at the time of compound addition by measuring the absorbance at 570 nm, allowing for the calculation of growth inhibition.
(§4) All concentrations of compounds were tested in triplicate and controls were averaged over 4 wells. IC50 was calculated by plotting the concentration of compound vs the percentage of inhibition in treated wells using GraphPad Prism 5. […] The scale utilized in Table 2 is as follows: […], ++ between 1000 and 5000 nM, and + greater than 5000 nM.

A549 cells = assay: MTT cell growth inhibition assay, A549 cells; format: cell-based; conditions: Homo sapiens, 72 h compound exposure
Procedure: as §3, §4

T1 sequence (P15056 whole entry): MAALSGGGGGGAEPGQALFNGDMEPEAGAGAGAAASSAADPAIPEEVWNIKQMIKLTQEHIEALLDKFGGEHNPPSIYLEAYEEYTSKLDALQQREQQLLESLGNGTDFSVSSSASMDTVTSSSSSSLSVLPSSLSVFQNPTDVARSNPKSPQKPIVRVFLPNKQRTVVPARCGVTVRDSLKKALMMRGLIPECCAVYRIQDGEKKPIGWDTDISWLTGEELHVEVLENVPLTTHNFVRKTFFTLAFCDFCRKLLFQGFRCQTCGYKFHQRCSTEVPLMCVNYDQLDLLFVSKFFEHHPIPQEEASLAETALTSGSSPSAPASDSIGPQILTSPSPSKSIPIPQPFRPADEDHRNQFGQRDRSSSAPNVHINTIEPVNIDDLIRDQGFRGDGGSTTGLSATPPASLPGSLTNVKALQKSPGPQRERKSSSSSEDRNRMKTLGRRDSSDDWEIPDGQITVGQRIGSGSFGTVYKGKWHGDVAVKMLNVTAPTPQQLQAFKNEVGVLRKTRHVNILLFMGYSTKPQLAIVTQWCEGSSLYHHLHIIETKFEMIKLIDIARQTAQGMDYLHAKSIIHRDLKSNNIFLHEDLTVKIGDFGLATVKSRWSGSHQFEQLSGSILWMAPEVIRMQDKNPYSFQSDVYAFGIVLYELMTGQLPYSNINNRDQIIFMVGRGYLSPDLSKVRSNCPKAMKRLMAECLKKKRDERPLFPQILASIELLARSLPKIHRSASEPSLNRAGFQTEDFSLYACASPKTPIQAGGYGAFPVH
T2 sequence (P15056 whole entry V600E): as the sequence (P15056 whole entry) above, with V600E counted along it

Compound | inhibition at 1 µM (BRAF) [%] | inhibition at 1 µM (BRAF V600E) [%] | IC50 (A375 cells) [nM] | IC50 (A549 cells) [nM] | IC50 (BRAF V600E; read-out: IC50 against BRAF V600E) [nM]
O=C(c1ccc2nccnc2c1)c1c(F)ccc(OCc2cccc(F)c2)c1F [Compound C01, (2,6-difluoro-3-((3-fluorobenzyl)oxy)phenyl)(quinoxalin-6-yl)methanone] | 30 to 89 | 30 to 89 | > 5000 | > 5000 | 
O=C(c1ccc2nccnc2c1)c1c(F)ccc(OCc2cccc(Cl)c2)c1F [Compound C02, (3-((3-chlorobenzyl)oxy)-2,6-difluorophenyl)(quinoxalin-6-yl)methanone] | 30 to 89 | 30 to 89 | > 5000 | > 5000 | 
COc1ccc(F)c(C(=O)c2ccc3nccnc3c2)c1F [Compound C04, (2,6-difluoro-3-methoxyphenyl)(quinoxalin-6-yl)methanone] | < 30 | 30 to 89 | 1000 to 5000 | 1000 to 5000 | 
O=C(c1ccc2ncc(-c3cccnc3)nc2c1)c1c(F)ccc(O)c1F [Compound C07, (2,6-difluoro-3-hydroxyphenyl)(3-(pyridin-3-yl)quinoxalin-6-yl)methanone] |  |  | 1000 to 5000 | 1000 to 5000 | 
N#Cc1cnc2ccc(C(=O)c3c(F)ccc(O)c3F)cc2n1 [Compound C09, 7-(2,6-difluoro-3-hydroxybenzoyl)quinoxaline-2-carbonitrile] |  |  | 1000 to 5000 | 1000 to 5000 | 
COc1cnc2ccc(C(=O)c3c(F)ccc(O)c3F)cc2n1 [Compound C10, (2,6-difluoro-3-hydroxyphenyl)(3-methoxyquinoxalin-6-yl)methanone] |  |  | 1000 to 5000 | 1000 to 5000 | 

Second part, the compound after the results:

inhibition at 1 µM (BRAF) [%] | inhibition at 1 µM (BRAF V600E) [%] | IC50 (A375 cells) [nM] | IC50 (A549 cells) [nM] | IC50 (BRAF V600E; read-out: IC50 against BRAF V600E) [nM] | Compound
 |  | < 1000 | 1000 to 5000 |  | O=C(c1ccc2nccnc2c1)c1c(F)ccc(O)c1F [Compound C03, (2,6-difluoro-3-hydroxyphenyl)(quinoxalin-6-yl)methanone]
 |  | < 1000 | 1000 to 5000 |  | O=C(c1ccc2ncc(Cl)nc2c1)c1c(F)ccc(O)c1F [Compound C05, (3-chloroquinoxalin-6-yl)(2,6-difluoro-3-hydroxyphenyl)methanone]
30 to 89 | > 89 | < 1000 | < 1000 | < 50 | O=C(c1ccc2nccnc2c1)c1c(F)ccc(OCc2ccccc2)c1F [Compound C06, (3-(benzyloxy)-2,6-difluorophenyl)(quinoxalin-6-yl)methanone]
 |  | < 1000 | 1000 to 5000 |  | O=C(c1ccc2ncc(-c3ccccc3)nc2c1)c1c(F)ccc(O)c1F [Compound C08, (2,6-difluoro-3-hydroxyphenyl)(3-phenylquinoxalin-6-yl)methanone]
